Measured values as given in publication PMC4914440 (Pharmacological research, 2016).
Like-named read-outs stand apart in the source and are kept apart here.

Experiments:
r5-HT6 = r5-HT6 (Rattus norvegicus, UniProt P31388); experiment: Radioligand displacement by a fixed drug concentration, [3H]LSD
h5-HT2C = molecular target: T1, h5-HT2C (Homo sapiens, UniProt P28335); experiment: Radioligand displacement by a fixed drug concentration, [3H]mesulergine
T1 sequence (P28335 33-458): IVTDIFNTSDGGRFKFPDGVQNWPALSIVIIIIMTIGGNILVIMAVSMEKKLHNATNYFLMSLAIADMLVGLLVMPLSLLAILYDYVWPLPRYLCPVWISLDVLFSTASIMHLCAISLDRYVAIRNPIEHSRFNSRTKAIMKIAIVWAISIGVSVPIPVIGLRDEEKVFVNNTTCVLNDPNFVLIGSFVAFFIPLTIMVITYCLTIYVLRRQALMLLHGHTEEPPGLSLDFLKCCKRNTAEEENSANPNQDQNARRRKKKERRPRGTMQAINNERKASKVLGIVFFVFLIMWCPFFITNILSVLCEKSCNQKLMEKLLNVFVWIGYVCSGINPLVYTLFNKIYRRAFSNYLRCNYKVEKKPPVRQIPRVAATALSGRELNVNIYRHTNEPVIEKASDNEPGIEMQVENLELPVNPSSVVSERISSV

α1β2γ2 GABAA receptors = α1β2γ2 GABAA receptors (Rattus norvegicus, UniProt P18508+P62813+P63138); experiment: Whole cell electrophysiology, GABA-activated currents, HEK293 cells; assay type: cell-based; conditions: 30 μM; for reduction of GABA-activated currents: EC30 GABA (5 μM)
α1β2γ2 GABAA receptors, sequence (P62813 28-455): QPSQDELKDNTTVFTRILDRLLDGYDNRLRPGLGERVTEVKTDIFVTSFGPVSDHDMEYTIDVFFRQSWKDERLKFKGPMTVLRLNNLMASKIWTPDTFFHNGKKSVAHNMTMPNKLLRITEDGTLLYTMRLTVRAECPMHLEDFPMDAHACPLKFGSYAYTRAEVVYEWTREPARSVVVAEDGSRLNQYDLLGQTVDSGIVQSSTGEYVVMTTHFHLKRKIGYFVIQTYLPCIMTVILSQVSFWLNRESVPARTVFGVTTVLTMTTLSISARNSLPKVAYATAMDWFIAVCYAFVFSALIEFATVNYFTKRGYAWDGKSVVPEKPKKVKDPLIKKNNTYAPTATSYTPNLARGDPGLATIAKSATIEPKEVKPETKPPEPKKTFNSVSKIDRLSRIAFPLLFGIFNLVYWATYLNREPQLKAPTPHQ
α1β2γ2 GABAA receptors, sequence (P63138 26-474): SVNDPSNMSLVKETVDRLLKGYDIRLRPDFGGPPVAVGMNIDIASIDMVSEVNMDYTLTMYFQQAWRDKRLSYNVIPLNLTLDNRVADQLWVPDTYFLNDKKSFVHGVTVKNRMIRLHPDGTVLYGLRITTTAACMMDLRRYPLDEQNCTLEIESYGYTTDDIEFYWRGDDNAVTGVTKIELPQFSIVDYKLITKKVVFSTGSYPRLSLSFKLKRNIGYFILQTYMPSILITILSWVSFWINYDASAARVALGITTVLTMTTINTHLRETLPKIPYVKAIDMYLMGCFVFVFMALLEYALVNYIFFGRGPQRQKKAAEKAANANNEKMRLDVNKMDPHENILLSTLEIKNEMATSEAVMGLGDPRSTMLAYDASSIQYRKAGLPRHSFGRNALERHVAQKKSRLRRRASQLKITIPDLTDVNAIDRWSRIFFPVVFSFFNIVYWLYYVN
α1β2γ2 GABAA receptors, sequence (P18508 39-466): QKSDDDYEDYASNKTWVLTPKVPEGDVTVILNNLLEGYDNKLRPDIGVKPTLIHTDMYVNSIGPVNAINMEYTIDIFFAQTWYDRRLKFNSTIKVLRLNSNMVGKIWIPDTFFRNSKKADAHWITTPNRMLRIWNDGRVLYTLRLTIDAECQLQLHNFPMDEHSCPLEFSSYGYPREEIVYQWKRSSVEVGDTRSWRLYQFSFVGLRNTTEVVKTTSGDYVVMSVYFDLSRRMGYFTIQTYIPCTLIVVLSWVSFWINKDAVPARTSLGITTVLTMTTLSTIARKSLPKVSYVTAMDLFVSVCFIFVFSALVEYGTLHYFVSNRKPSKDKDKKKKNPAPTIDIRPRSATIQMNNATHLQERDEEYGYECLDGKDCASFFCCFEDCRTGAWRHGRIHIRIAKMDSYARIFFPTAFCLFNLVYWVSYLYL

5-HT6 receptor [1] = molecular target: T2, 5-HT6 receptor (Rattus norvegicus, UniProt P31388); experiment: cAMP-Glo assay of Gs signaling, HeLa cells; assay type: cell-based
T2 sequence (P31388 whole entry): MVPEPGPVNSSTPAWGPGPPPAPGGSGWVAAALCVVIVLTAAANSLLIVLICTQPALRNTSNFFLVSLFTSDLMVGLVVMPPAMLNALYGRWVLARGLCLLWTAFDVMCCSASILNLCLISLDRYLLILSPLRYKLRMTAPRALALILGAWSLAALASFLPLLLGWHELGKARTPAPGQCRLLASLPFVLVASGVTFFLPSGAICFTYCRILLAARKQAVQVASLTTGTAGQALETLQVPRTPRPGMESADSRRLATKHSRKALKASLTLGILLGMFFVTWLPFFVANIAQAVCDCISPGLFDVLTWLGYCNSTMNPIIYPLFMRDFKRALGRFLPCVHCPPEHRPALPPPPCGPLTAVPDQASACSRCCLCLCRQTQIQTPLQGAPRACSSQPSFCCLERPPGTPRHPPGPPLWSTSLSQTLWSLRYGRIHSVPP

5-HT2A receptor [2] = molecular target: T3, 5-HT2A receptor (Homo sapiens, UniProt P28223); experiment: Intracellular calcium assay of Gq signaling, HEK293 cells; assay type: cell-based; conditions: for agonist efficacy class: intracellular calcium
T3 sequence (P28223 whole entry): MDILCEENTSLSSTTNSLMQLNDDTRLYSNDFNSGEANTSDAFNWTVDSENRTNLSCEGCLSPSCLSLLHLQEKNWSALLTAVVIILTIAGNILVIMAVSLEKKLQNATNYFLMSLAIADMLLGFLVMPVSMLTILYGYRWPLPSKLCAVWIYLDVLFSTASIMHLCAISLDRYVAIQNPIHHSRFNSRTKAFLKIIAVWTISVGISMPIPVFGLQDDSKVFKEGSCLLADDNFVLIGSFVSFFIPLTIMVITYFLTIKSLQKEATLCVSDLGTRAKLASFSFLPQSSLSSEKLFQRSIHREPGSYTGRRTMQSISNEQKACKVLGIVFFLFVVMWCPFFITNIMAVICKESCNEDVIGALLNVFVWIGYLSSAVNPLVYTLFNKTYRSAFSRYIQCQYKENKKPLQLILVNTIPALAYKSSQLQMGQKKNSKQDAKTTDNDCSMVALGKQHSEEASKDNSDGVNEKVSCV

untransfected HeLa cells = experiment: cAMP-Glo assay, control cells; assay type: cell-based, human; conditions: efavirenz 30 μM, clozapine 30 μM, 5-HT 1 μM
5-HT6 receptor [3] = molecular target: T2, 5-HT6 receptor; experiment: Competition radioligand binding, concentration-response
h5-HT2A = h5-HT2A (Homo sapiens, UniProt P28223)
h5-HT2A, sequence (P28223 whole entry): as above

M3 muscarinic receptor = M3 muscarinic receptor (Homo sapiens, UniProt P20309); experiment: Intracellular calcium assay, untransfected HEK293 cells with endogenous receptor; assay type: cell-based
M3 muscarinic receptor, sequence (P20309 whole entry): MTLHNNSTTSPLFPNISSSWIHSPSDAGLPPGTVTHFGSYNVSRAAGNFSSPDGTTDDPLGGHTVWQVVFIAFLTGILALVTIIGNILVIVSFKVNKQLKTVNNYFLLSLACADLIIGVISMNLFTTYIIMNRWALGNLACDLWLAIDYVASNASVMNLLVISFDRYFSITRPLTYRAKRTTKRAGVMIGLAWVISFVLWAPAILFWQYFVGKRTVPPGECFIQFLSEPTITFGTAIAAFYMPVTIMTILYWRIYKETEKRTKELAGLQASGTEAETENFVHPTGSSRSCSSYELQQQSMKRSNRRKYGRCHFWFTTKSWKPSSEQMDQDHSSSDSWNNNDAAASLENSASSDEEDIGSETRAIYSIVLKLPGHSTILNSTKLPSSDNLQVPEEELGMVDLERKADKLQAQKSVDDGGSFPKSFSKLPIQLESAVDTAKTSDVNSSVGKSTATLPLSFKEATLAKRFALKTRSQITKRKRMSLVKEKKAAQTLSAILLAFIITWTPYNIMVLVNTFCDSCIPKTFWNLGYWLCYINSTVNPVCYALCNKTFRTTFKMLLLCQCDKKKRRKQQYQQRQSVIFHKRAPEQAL

untransfected CHO cells = experiment: Intracellular calcium assay, control cells; assay type: cell-based; conditions: data not shown
[4] = test system: endogenous β-adrenergic receptor; experiment: cAMP-Glo assay, untransfected HeLa cells stimulated with; assay type: cell-based, human
5-HT2A receptor [5] = molecular target: T3, 5-HT2A receptor; conditions: cloned human 5-HT2A receptor; cited from earlier work
[6] = cited from earlier work

r5-HT6, sequence (P31388 whole entry): as the sequence (P31388 whole entry) above

In the case of `Cc1cn([C@H]2C[C@H](N=[N+]=[N-])[C@@H](CO)O2)c(=O)[nH]c1=O` [ZDV], the “interaction (radioligand displacement)” value (r5-HT6; 10 μM ARV drug, data not shown) is reported as “no significant interactions”, the “interaction (radioligand displacement)” value (r5-HT6; 60 μM ARV drug) is reported as “only NVP displayed a significant, albeit comparatively weak interaction, with the 5-HT6 receptor” and the “interaction (radioligand displacement)” value (h5-HT2C; 10 μM ARV drug, data not shown) is reported as “no significant interactions”. The “interaction (radioligand displacement)” value (h5-HT2C; 60 μM ARV drug) was “only NVP displayed a significant, albeit comparatively weak interaction, with the 5-HT6 receptor” and the “reduction of GABA-activated currents” value (α1β2γ2 GABAA receptors) was 36–50 % of control.

For `NCCc1c[nH]c2ccc(O)cc12` [serotonin, 5-Hydroxytryptamine], the EC50 (5-HT6 receptor [1]) was 12.7 ± 6.2 nM, the “pseudo Hill slope” value (5-HT6 receptor [1]; increase in cAMP) was 1.02 ± 0.35 and the “pseudo Hill slope range” value (5-HT2A receptor [2]; across serum conditions) was 0.55–0.70. For the same molecule, the “change in cAMP levels” value (untransfected HeLa cells) was “no significant changes in cAMP levels” and the Ki (5-HT6 receptor [3]) was 105 ± 8 nM.

In the case of `Nc1nc(=O)n([C@@H]2CS[C@H](CO)O2)cc1F` [FTC], the “interaction (radioligand displacement)” value (r5-HT6; 10 μM ARV drug, data not shown) is reported as “no significant interactions”, the “interaction (radioligand displacement)” value (r5-HT6; 60 μM ARV drug) is reported as “only NVP displayed a significant, albeit comparatively weak interaction, with the 5-HT6 receptor” and the “interaction (radioligand displacement)” value (h5-HT2C; 10 μM ARV drug, data not shown) is reported as “no significant interactions”. For the same molecule, the “interaction (radioligand displacement)” value (h5-HT2C; 60 μM ARV drug) was “only NVP displayed a significant, albeit comparatively weak interaction, with the 5-HT6 receptor”, the “reduction of GABA-activated currents” value (α1β2γ2 GABAA receptors) was 36–50 % of control and the “interaction (radioligand displacement)” value (h5-HT2A; 10 μM ARV drug, data not shown) was “no significant interactions”. The “interaction (radioligand displacement)” value (h5-HT2A; 60 μM ARV drug) was “only NVP displayed a significant, albeit comparatively weak interaction, with the 5-HT6 receptor”.

For `CN1[C@@H]2C[C@@H](OC(=O)[C@H](CO)c3ccccc3)C[C@H]1[C@@H]1O[C@@H]12` [scopolamine], the “block of acetylcholine response” value (M3 muscarinic receptor) was “blocked”.

In the case of `C[N+](C)(C)CCOC(N)=O` [carbachol], the Gq-mediated response (untransfected CHO cells) is reported as “No Gq-mediated response”.

For `CC(C)(C)NC[C@H](O)COc1nsnc1N1CCOCC1` [timolol], the “effect on (−)-epinephrine stimulated cAMP response” value [4] was “blocked”.

For `CN1CCN(C2=Nc3cc(Cl)ccc3Nc3ccccc32)CC1` [clozapine], the “effect on 5-HT agonist effect” value (5-HT6 receptor [1]; 30 μM) was “completely overcame the agonist effects of 5-HT but also reduced cAMP levels to below basal”, the “effect on basal cAMP” value (5-HT6 receptor [1]; 30 μM) was “significantly reduced basal levels of cAMP” and the “change in cAMP levels” value (untransfected HeLa cells) was “no significant changes in cAMP levels”.

For `CN1CN(c2ccccc2)C2(CCN(CCCC(=O)c3ccc(F)cc3)CC2)C1=O` [[^3H]MSP, [3H]methylspiperone], the Kd (5-HT2A receptor [5]) is given as 0.246 nM.

In the case of `COc1cccc([C@H](O)C2CCN(CCc3ccc(F)cc3)CC2)c1OC` [MDL100,907], the “effect of pretreatment on efavirenz substitution for LSD” value [6] is listed as “this substitution was blocked by pretreatment”.

With `COc1cc(CC(C)N)c(OC)cc1I` (racemic) [(±)-DOI] the agonist efficacy class (5-HT2A receptor [2]) was “partial agonists”.

In the case of `CCN(CC)C(=O)[C@@H]1C=C2c3cccc4[nH]cc(c34)C[C@H]2N(C)C1` [LSD, Lysergic acid diethylamide], the agonist efficacy class (5-HT2A receptor [2]) is listed as “partial agonists” and the “substitution when efavirenz was the discriminative stimulus” value [6] is listed as “partially substituted for efavirenz”.

For `CC(=O)OCC[N+](C)(C)C` [acetylcholine], the receptor activation (M3 muscarinic receptor) was “activated” and the Gq-mediated response (untransfected CHO cells) was “No Gq-mediated response”.

In the case of `Cc1ccnc2c1NC(=O)c1cccnc1N2C1CC1` [NVP], the “interaction (radioligand displacement)” value (r5-HT6; 10 μM ARV drug, data not shown) is reported as “no significant interactions”, the “interaction (radioligand displacement)” value (r5-HT6; 60 μM ARV drug) is reported as “significant, albeit comparatively weak interaction” and the “affinity lower than for efavirenz” value (r5-HT6; 5-HT6 receptor, estimated) is reported as “approximately 30 fold”. For the same molecule, the “interaction (radioligand displacement)” value (h5-HT2C; 10 μM ARV drug, data not shown) was “no significant interactions”, the “interaction (radioligand displacement)” value (h5-HT2C; 60 μM ARV drug) was “only NVP displayed a significant, albeit comparatively weak interaction, with the 5-HT6 receptor” and the “potentiation of GABA-activated currents” value (α1β2γ2 GABAA receptors; co-application with GABA) was 8%.
